Measured values: BigSolDB 2.1

Cc1ccc(CO)cc1
solubility (mole fraction)
Conditions	278.15 K	283.15 K	288.15 K	293.15 K	298.15 K	303.15 K	308.15 K	313.15 K
in 1,2-dichloroethane	0.166	0.214	0.28	0.343	0.418	0.506	0.585	0.685
in acetone	0.226	0.272	0.321	0.384	0.431	0.497	0.568	0.642
in acetonitrile	0.162	0.214	0.287	0.361	0.454	0.548	0.638	0.735
in dichloromethane	0.4	0.429	0.466	0.502	0.537	0.588	0.646	0.729
in ethanol	0.236	0.276	0.327	0.379	0.44	0.508	0.581	0.662
in ethyl acetate	0.215	0.259	0.308	0.369	0.433	0.511	0.587	0.671
in ethyl formate	0.152	0.191	0.242	0.303	0.372	0.449	0.537	0.62
in isobutanol	0.231	0.275	0.321	0.373	0.446	0.513	0.594	0.667
in isopropanol	0.248	0.283	0.33	0.386	0.448	0.527	0.597	0.674
in n-butanol	0.252	0.287	0.334	0.385	0.45	0.51	0.584	0.698
in n-propanol	0.253	0.293	0.34	0.398	0.454	0.518	0.595	0.674
